SMILES strings stand for the structures.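 Protocol summary: plate cells (96-well), add compound at 5 concentrations, incubate 48 h, interpolate endpoints linearly. Here, GI50 denotes the concentration required for 50% inhibition of growth.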 The source made the active and inactive calls. Cut-off read from the data, not from the text of the source: active = GI50 up to about 1.1 µM and inactive = higher.

We go through 8 molecules from ChEMBL document CHEMBL1201862, “PubChem BioAssay data set” (2004).

Some test systems named below: A498; A549; BT-549; EKVX; HCC 2998; HCT-116; IGROV-1; KM12; MDA-MB-231; MDA-MB-435; MDA-N; NCI-H460; OVCAR-8; SF-268; SK-MEL-2; SK-MEL-5; SW-620; U-251; UACC-257.
Assay in all cases: DTP human tumour cell line panel, 48 h

The term GI50 denotes the concentration that inhibits growth by half. For the molecule `c1cc(CSSCc2ccncc2)ccn1`, the GI50 in the assay on A498 is 42.7 µM (inactive); in the assay on A549 it was 27.3 µM (inactive); in the assay on BT-549 it was 51.6 µM (inactive); with EKVX it was 54.8 µM (inactive); in the assay on HCC 2998 it was 22.9 µM (inactive); with HCT-116 it was 14.1 µM (inactive). The GI50 in the assay with IGROV-1 was 30.5 µM (inactive); with KM12, 29.6 µM (inactive); in the assay on MDA-MB-231, 25.9 µM (inactive); in the assay with MDA-MB-435, 20.6 µM (inactive); in the assay with MDA-N, 12.9 µM (inactive); with NCI-H460 it was 23.7 µM (inactive). The GI50 was 21.7 µM (inactive) in the assay with OVCAR-8; 28.4 µM (inactive) in the assay with SF-268; 27.9 µM (inactive) in the assay with SK-MEL-2; 17.7 µM (inactive) in the assay on SK-MEL-5; 6.27 µM (inactive) in the assay with SW-620; 23.3 µM (inactive) in the assay on U-251. For the same molecule, in the assay with UACC-257, the GI50 was 15.9 µM (inactive).
As to `O=C(c1ccc(Cl)cc1)c1cnc(Nc2ccccc2Cl)s1`, the GI50 in the assay on A498 is 3.91 µM (inactive); in the assay on A549, 23.9 µM (inactive); with BT-549, 20.7 µM (inactive); in the assay with EKVX, 22.9 µM (inactive); in the assay on HCC 2998, 29 µM (inactive); in the assay with HCT-116, 21 µM (inactive). In addition, the GI50 with IGROV-1 is 23.2 µM (inactive); in the assay on KM12, 27.2 µM (inactive); with MDA-MB-231 it was 41.4 µM (inactive); with MDA-MB-435 it was 32.6 µM (inactive); in the assay on MDA-N, 21.8 µM (inactive); in the assay on NCI-H460, 25.3 µM (inactive). Also, the GI50 in the assay with OVCAR-8 is 29.2 µM (inactive); in the assay on SF-268, 26.4 µM (inactive); in the assay with SK-MEL-2, 15.6 µM (inactive); in the assay with SK-MEL-5 it was 18.5 µM (inactive); with SW-620, 40.1 µM (inactive); with U-251, 28.1 µM (inactive). Besides, in the assay on UACC-257, the GI50 was 21 µM (inactive).
For the molecule `CCCCCC(=O)Nc1[nH]nnc1C(N)=O`, the GI50 with A498, in the assay with A549, with BT-549, in the assay on EKVX, in the assay with HCC 2998 and in the assay on HCT-116 was > 100 µM (inactive) in each case. The GI50 in the assay on IGROV-1, in the assay on KM12, in the assay on MDA-MB-231, with MDA-MB-435, in the assay with MDA-N and in the assay with NCI-H460 was > 100 µM (inactive) each time. The GI50 with OVCAR-8, in the assay on SF-268, in the assay with SK-MEL-2, in the assay on SK-MEL-5, with SW-620 and in the assay on U-251 was > 100 µM (inactive) throughout. Moreover, in the assay with UACC-257, the GI50 was > 100 µM (inactive).
As for `Clc1ccc(-c2nn3c(COc4cccc(OCc5nnc6sc(-c7ccc(Cl)cc7)nn56)c4)nnc3s2)cc1`, the GI50 in the assay on A498 was 15.7 µM (inactive); in the assay with A549, 25.8 µM (inactive); in the assay with BT-549, 30.7 µM (inactive); with EKVX, 21.3 µM (inactive); in the assay on HCC 2998, 32.1 µM (inactive); in the assay with HCT-116 it was 18.6 µM (inactive). For the same molecule, the GI50 is 26.8 µM (inactive) in the assay with IGROV-1; 29.5 µM (inactive) with KM12; 21.2 µM (inactive) with MDA-MB-231; 19.4 µM (inactive) in the assay on MDA-MB-435; 15.7 µM (inactive) in the assay on MDA-N; 31 µM (inactive) in the assay with NCI-H460. Further, the GI50 is 28.9 µM (inactive) in the assay on OVCAR-8; 21.7 µM (inactive) in the assay on SF-268; 58.5 µM (inactive) with SK-MEL-2; 15.2 µM (inactive) in the assay with SK-MEL-5; 25.9 µM (inactive) in the assay on SW-620; 24.3 µM (inactive) with U-251. Besides, the GI50 with UACC-257 was 26.1 µM (inactive).
In the case of `O=c1cnc2cc3ccccc3cc2[nH]1`, the GI50 in the assay with A498 was > 100 µM (inactive); with A549, > 100 µM (inactive); in the assay with BT-549, > 100 µM (inactive); in the assay with EKVX, 1.57 µM (inactive); in the assay on HCC 2998, > 100 µM (inactive); with HCT-116 it was > 100 µM (inactive). In addition, the GI50 is > 100 µM (inactive) in the assay on IGROV-1; > 100 µM (inactive) with KM12; 75.7 µM (inactive) in the assay on MDA-MB-231; > 100 µM (inactive) with MDA-MB-435; > 100 µM (inactive) in the assay with MDA-N; > 100 µM (inactive) in the assay on NCI-H460. Also, the GI50 in the assay on OVCAR-8, with SF-268, in the assay on SK-MEL-2, in the assay with SK-MEL-5, in the assay with SW-620 and in the assay on U-251 was > 100 µM (inactive) in each case. In addition, the GI50 in the assay on UACC-257 is > 100 µM (inactive).
With `CCCCCC(/C=C/C1CCC(=O)C1)OCOCCOC` (configuration not stated), the GI50 with A498 was 48.2 µM (inactive); in the assay with A549, 59.7 µM (inactive); in the assay on BT-549 it was 27.9 µM (inactive); in the assay on EKVX, 54.1 µM (inactive); with HCC 2998, 64.4 µM (inactive); with HCT-116, 27 µM (inactive). The GI50 in the assay on IGROV-1 was 42.2 µM (inactive); with KM12, 45.9 µM (inactive); in the assay with MDA-MB-231 it was 69.8 µM (inactive); in the assay with MDA-MB-435, 33.2 µM (inactive); in the assay with MDA-N, 40.2 µM (inactive); with NCI-H460, 67.9 µM (inactive). For the same molecule, the GI50 in the assay on OVCAR-8 was 33.9 µM (inactive); in the assay on SF-268, 29.3 µM (inactive); in the assay with SK-MEL-2, 64.6 µM (inactive); with SK-MEL-5 it was 47.8 µM (inactive); in the assay with SW-620 it was 29.8 µM (inactive); with U-251, 38.1 µM (inactive). For the same molecule, the GI50 in the assay on UACC-257 was 26.9 µM (inactive).
As to `CC1(C)[C@@H]2C[C@H]1c1cnc(-c3ccccn3)cc1C2CCCCC[C@@H]1c2cc(-c3ccccn3)ncc2[C@@H]2C[C@H]1C2(C)C` (some centres not stated), the GI50 in the assay with A498 is 3.5 µM (inactive); with A549, 0.869 µM (active); in the assay with BT-549 it was 14.1 µM (inactive); with EKVX, 2.56 µM (inactive); with HCC 2998, 7.1 µM (inactive); with HCT-116, 0.489 µM (active). The GI50 is 1.63 µM (inactive) with IGROV-1; 1.48 µM (inactive) with KM12; 8.15 µM (inactive) in the assay on MDA-MB-231; 1.38 µM (inactive) in the assay with MDA-MB-435; 1.36 µM (inactive) in the assay on MDA-N; 1.99 µM (inactive) in the assay with NCI-H460. For the same molecule, the GI50 in the assay on OVCAR-8 is 1.88 µM (inactive); in the assay on SF-268 it was 0.687 µM (active); in the assay on SK-MEL-2, 7.1 µM (inactive); in the assay on SK-MEL-5, 4.18 µM (inactive); in the assay on SW-620, 0.83 µM (active); in the assay on U-251, 0.897 µM (active). The GI50 in the assay on UACC-257 is 0.655 µM (active).
Consider `CC1(C)O[C@@H]2COC(=O)[C@@H]2O1`, for which the GI50 in the assay with A498, in the assay with A549, with BT-549, in the assay on EKVX, with HCC 2998 and in the assay with HCT-116 was > 100 µM (inactive) throughout. Also, the GI50 in the assay on IGROV-1, with KM12, with MDA-MB-231, in the assay on MDA-MB-435, in the assay with MDA-N and in the assay on NCI-H460 was > 100 µM (inactive) in each case. The GI50 in the assay on OVCAR-8, in the assay on SF-268, with SK-MEL-2, in the assay with SK-MEL-5, with SW-620 and in the assay on U-251 was > 100 µM (inactive) throughout. Further, the GI50 with UACC-257 was > 100 µM (inactive).
